Source: PubChem BioAssay AID330 (DTP/NCI, 2004)
Several values for one entry are separate records, joined by “and”; a condition that tells them apart may be missing. Equal entries are not always repeated. Inconclusive results and toxic doses are left out.

Tested on: P388 leukemia ip, CD2F1 mice, survival T/C
Experiment: NCI In Vivo Anticancer Drug Screen. Data for tumor model P388 Leukemia (intraperitoneal) in CD2F1 (CDF1) mice
Details: endpoint: median survival time, higher = longer survival
In short: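 Mice carrying the transplanted tumor received test compound or vehicle. Survival was recorded in each group, and the value is the treated-group measurement divided by that of the vehicle-treated control group.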

[1] = dose: 60.0 mg/kg/injection, schedule: Q01DX005 (ip), vehicle: saline with Tween-80
[2] = dose: 120.0 mg/kg/injection, schedule: Q01DX005 (ip), vehicle: saline with Tween-80
[3] = dose: 60.0 mg/kg/injection, schedule: Q01DX005 (ip), vehicle: saline
[4] = dose: 120.0 mg/kg/injection, schedule: Q01DX005 (ip), vehicle: saline
[5] = dose: 50.0 mg/kg/injection, schedule: Q01DX009 (ip), vehicle: saline with Tween-80
[6] = dose: 100.0 mg/kg/injection, schedule: Q01DX009 (ip), vehicle: saline with Tween-80
[7] = dose: 200.0 mg/kg/injection, schedule: Q01DX009 (ip), vehicle: saline with Tween-80
[8] = dose: 50.0 mg/kg/injection, schedule: Q04DX003 (ip), vehicle: Klucel (hydroxypropylcellulose) (HPC)
[9] = dose: 100.0 mg/kg/injection, schedule: Q04DX003 (ip), vehicle: Klucel (hydroxypropylcellulose) (HPC)
[10] = dose: 200.0 mg/kg/injection, schedule: Q04DX003 (ip), vehicle: Klucel (hydroxypropylcellulose) (HPC)
[11] = dose: 60.0 mg/kg/injection, schedule: Q01DX005 (ip), vehicle: Klucel (hydroxypropylcellulose) (HPC)
[12] = dose: 120.0 mg/kg/injection, schedule: Q01DX005 (ip), vehicle: Klucel (hydroxypropylcellulose) (HPC)
[13] = dose: 240.0 mg/kg/injection, schedule: Q01DX005 (ip), vehicle: Klucel (hydroxypropylcellulose) (HPC)
[14] = dose: 50.0 mg/kg/injection, schedule: Q01DX005 (ip), vehicle: saline
[15] = dose: 50.0 mg/kg/injection, schedule: Q01DX009 (ip), vehicle: saline
[16] = dose: 100.0 mg/kg/injection, schedule: Q01DX009 (ip), vehicle: saline
[17] = dose: 240.0 mg/kg/injection, schedule: Q01DX005 (ip), vehicle: saline

[N-]=[N+]=Nc1ccc(SN2C(=O)c3ccccc3C2=O)cc1
T/C [1]: 112 % of control
T/C [2]: 113 % of control
T/C (dose: 240.0 mg/kg/injection, schedule: Q01DX005 (ip), vehicle: saline with Tween-80): 113 % of control

Cc1c(-c2nc(N)nc(C3CC3)c2C)nc(N)nc1C1CC1
T/C [3]: 102 % of control
T/C [4]: 100 % of control

Cc1cccn2c([N+](=O)[O-])cnc12
T/C [5]: 102 % of control
T/C [6]: 120 % of control
T/C [7]: 113 % of control

COCC1(COC)CCN(C2CC(O[C@H]3C[C@](O)(C(C)=O)Cc4c(O)c5c(c(O)c43)C(=O)c3c(OC)cccc3C5=O)OC(C)C2O)CC1 (some centres not stated)
T/C (dose: 1.56 mg/kg/injection, schedule: Q04DX003 (ip), vehicle: water): 103 % of control
T/C (dose: 3.12 mg/kg/injection, schedule: Q04DX003 (ip), vehicle: water): 110 % of control and 113 % of control
T/C (dose: 12.5 mg/kg/injection, schedule: Q04DX003 (ip), vehicle: water): 183 % of control and 212 % of control
T/C (dose: 25.0 mg/kg/injection, schedule: Q04DX003 (ip), vehicle: water): 152 % of control

ClCCN1c2ccc3ccccc3c2Sc2c1ccc1ccccc21
T/C (dose: 50.0 mg/kg/injection, schedule: Q01DX005 (ip), vehicle: saline with Tween-80): 96 % of control
T/C (dose: 100.0 mg/kg/injection, schedule: Q01DX005 (ip), vehicle: saline with Tween-80): 92 % of control
T/C (dose: 200.0 mg/kg/injection, schedule: Q01DX005 (ip), vehicle: saline with Tween-80): 97 % of control

O=P(c1ccccc1)(c1ccccc1)c1ccccc1.O=P(c1ccccc1)(c1ccccc1)c1ccccc1.S=C=[N][Sn]([N]=C=S)([N]=C=S)[c]1ccccc1
T/C (dose: 100.0 mg/kg/injection, schedule: Q04DX003 (ip), vehicle: saline): 105 % of control
T/C (dose: 200.0 mg/kg/injection, schedule: Q04DX003 (ip), vehicle: saline): 108 % of control
T/C (dose: 400.0 mg/kg/injection, schedule: Q04DX003 (ip), vehicle: saline): 100 % of control

C#CC1OCCCO1
T/C [3]: 100 % of control
T/C [4]: 106 % of control

O=[N+]([O-])c1ccc(NN=C2CCCCC2)c([N+](=O)[O-])c1
T/C (dose: 25.0 mg/kg/injection, schedule: Q04DX003 (ip), vehicle: Klucel (hydroxypropylcellulose) (HPC)): 103 % of control
T/C [8]: 104 % of control
T/C [9]: 105 % of control
T/C [10]: 112 % of control

COC(=O)C1CC=CCC1C(=O)O (configuration not stated)
T/C [5]: 93 % of control
T/C [6]: 95 % of control
T/C [7]: 99 % of control

CN(C)c1nc(=[N+](C)C)ss1
T/C [5]: 90 % of control
T/C [6]: 100 % of control
T/C [7]: 113 % of control

Cc1ccccc1-n1c(SCC(=O)NC(=O)Nc2cccc(Cl)c2)nc2c(Br)cc(Br)cc2c1=O
T/C [11]: 99 % of control
T/C [12]: 101 % of control
T/C [13]: 87 % of control

O=[N+]([O-])c1ccc(CS(=O)(=O)c2ccccc2)o1
T/C (dose: 50.0 mg/kg/injection, schedule: Q01DX009 (ip), vehicle: suspension in saline): 103 % of control
T/C (dose: 100.0 mg/kg/injection, schedule: Q01DX009 (ip), vehicle: suspension in saline): 100 % of control
T/C (dose: 200.0 mg/kg/injection, schedule: Q01DX009 (ip), vehicle: suspension in saline): 105 % of control

CCN(CC)CCCCCCNc1cc(OC)c(Cl)c2cccnc12
T/C (dose: 6.25 mg/kg/injection, schedule: Q01DX005 (ip), vehicle: saline): 102 % of control
T/C (dose: 12.5 mg/kg/injection, schedule: Q01DX005 (ip), vehicle: saline): 95 % of control
T/C (dose: 25.0 mg/kg/injection, schedule: Q01DX005 (ip), vehicle: saline): 98 % of control
T/C [14]: 115 % of control

CCN(CC)c1ccc2nc3c4ccccc4c(=NC(=O)c4ccccc4-c4c5ccc(N(CC)CC)cc5[o+]c5cc(N(CC)CC)ccc45)cc-3oc2c1
T/C [15]: 106 % of control
T/C [16]: 96 % of control

CCCCNC(=O)NC1OC(CO)C(O)C1O (configuration not stated)
T/C [14]: 98 % of control
T/C (dose: 100.0 mg/kg/injection, schedule: Q01DX005 (ip), vehicle: saline): 97 % of control
T/C (dose: 200.0 mg/kg/injection, schedule: Q01DX005 (ip), vehicle: saline): 100 % of control

C1CC2OC2CC1C1CO1 (configuration not stated)
T/C [6]: 104 % of control
T/C (dose: 100.0 mg/kg/injection, schedule: Q04DX003 (ip), vehicle: saline sonified): 100 % of control
T/C [7]: 104 % of control
T/C (dose: 200.0 mg/kg/injection, schedule: Q04DX003 (ip), vehicle: saline sonified): 100 % of control
T/C (dose: 400.0 mg/kg/injection, schedule: Q04DX003 (ip), vehicle: saline sonified): 109 % of control

O=C(O)c1cccc(-c2c3ccc(=O)cc-3oc3cc(O)ccc23)c1
T/C [11]: 104 % of control
T/C [12]: 113 % of control
T/C [13]: 110 % of control

CCCCCCCC/C=C/CCCCCCCC(=O)NCCCN (tested in a mixture with another compound)
T/C (dose: 25.0 mg/kg/injection, schedule: Q04DX002 (ip), vehicle: saline): 104 % of control
T/C (dose: 50.0 mg/kg/injection, schedule: Q04DX002 (ip), vehicle: saline): 103 % of control

CCOC1CC(C)(O)Cc2cc3c(c(O)c21)C(=O)c1c(O)cc2c(c1C3=O)OC1OC2(C)C(O)C(N(C)C)C1O (configuration not stated)
T/C (dose: 2.5 mg/kg/injection, schedule: Q01DX009 (ip), vehicle: other): 150 % of control and 156 % of control
T/C (dose: 3.25 mg/kg/injection, schedule: Q01DX009 (ip), vehicle: other): 151 % of control
T/C (dose: 5.0 mg/kg/injection, schedule: Q01DX009 (ip), vehicle: other): 166 % of control and 207 % of control
T/C (dose: 6.5 mg/kg/injection, schedule: Q01DX009 (ip), vehicle: other): 163 % of control
T/C (dose: 10.0 mg/kg/injection, schedule: Q01DX009 (ip), vehicle: other): 178 % of control and 205 % of control
T/C (dose: 13.0 mg/kg/injection, schedule: Q01DX009 (ip), vehicle: other): 93 % of control
T/C (dose: 20.0 mg/kg/injection, schedule: Q01DX009 (ip), vehicle: other): 87 % of control

COc1cc[c]([Sn]([O][Sn]([Cl])([c]2ccc(OC)cc2)[c]2ccc(OC)cc2)[c]2ccc(OC)cc2)cc1
T/C (dose: 3.12 mg/kg/injection, schedule: Q01DX005 (ip), vehicle: Klucel (hydroxypropylcellulose) (HPC)): 97 % of control
T/C (dose: 6.25 mg/kg/injection, schedule: Q01DX005 (ip), vehicle: Klucel (hydroxypropylcellulose) (HPC)): 116 % of control and 92 % of control
T/C (dose: 12.5 mg/kg/injection, schedule: Q01DX005 (ip), vehicle: Klucel (hydroxypropylcellulose) (HPC)): 111 % of control
T/C (dose: 25.0 mg/kg/injection, schedule: Q01DX005 (ip), vehicle: Klucel (hydroxypropylcellulose) (HPC)): 120 % of control

O=C(Nc1ccccc1)Nc1ccccc1C(=O)O
T/C [8]: 100 % of control
T/C [9]: 107 % of control
T/C [10]: 109 % of control
T/C (dose: 400.0 mg/kg/injection, schedule: Q04DX003 (ip), vehicle: Klucel (hydroxypropylcellulose) (HPC)): 93 % of control

CC(C)(C)N(Cc1ccccc1)C(O)Cc1c(-c2ccccc2)c(-c2ccccc2)c2n1CCC2 (configuration not stated)
T/C [11]: 89 % of control
T/C [12]: 88 % of control

NC1CCC[C@@H](O)[C@H]1O (some centres not stated)
T/C [3]: 104 % of control
T/C [4]: 103 % of control
T/C [17]: 98 % of control

CCCOC(=O)c1ccc(NC(=O)Nc2ccc(C(=O)OCC)cc2)cc1
T/C [11]: 87 % of control
T/C [12]: 90 % of control
T/C [13]: 88 % of control

N#C/C(=C\C=C\c1ccccc1)c1nc(-c2ccc(Cl)cc2)cs1
T/C [15]: 91 % of control
T/C [16]: 91 % of control
T/C (dose: 200.0 mg/kg/injection, schedule: Q01DX009 (ip), vehicle: saline): 88 % of control

BrC1C2CCC3OC3C12 (configuration not stated)
T/C [1]: 104 % of control
T/C [2]: 103 % of control

Clc1nc[nH]c1Cl
T/C (dose: 25.0 mg/kg/injection, schedule: Q01DX009 (ip), vehicle: saline with Tween-80): 109 % of control
T/C [5]: 100 % of control
T/C [6]: 98 % of control

c1ccc(Cc2cc(-c3cc(Cc4ccccc4)[nH]n3)n[nH]2)cc1
T/C (dose: 60.0 mg/kg/injection, schedule: Q01DX005 (ip), vehicle: Klucel + Tween-80): 101 % of control
T/C (dose: 120.0 mg/kg/injection, schedule: Q01DX005 (ip), vehicle: Klucel + Tween-80): 106 % of control
T/C (dose: 240.0 mg/kg/injection, schedule: Q01DX005 (ip), vehicle: Klucel + Tween-80): 107 % of control

NC(=O)C1CCCN1C(=O)C1CCCN(Cc2cc(CN3CCCC(C(=O)N4CCCC4C(N)=O)C3)cc(CN3CCCC(C(=O)N4CCCC4C(N)=O)C3)c2)C1 (configuration not stated)
T/C [3]: 104 % of control
T/C [4]: 98 % of control
T/C [17]: 95 % of control
